Source: ChEMBL document CHEMBL4043168, “The design and SAR of a novel series of 2-aminopyridine based LRRK2 inhibitors” (Bioorg Med Chem Lett, 2017)

Columns and labels:
[1] = molecular target: Ribosomal protein S6 kinase delta-1 (Homo sapiens) (UniProt Q96S38); assay: Inhibition of RSKL1 domain1 Protein Kinase Domain (VLGVIDKVLLVMDTR) in human PBMC at 1 uM
[2] = molecular target: Serine/threonine-protein kinase B-raf (Homo sapiens) (UniProt P15056); assay: Inhibition of BRAF labeling at conserved Lys2 (DLKSNNIFLHEDLTVK) in human PBMC at 0.1 uM
[3] = molecular target: Calcium/calmodulin-dependent protein kinase type II subunit gamma (Homo sapiens) (UniProt Q13555); assay: Inhibition of CaMK2g labeling at conserved Lys1 (TSTQEYAAKIINTK) in human PBMC at 0.1 uM
[4] = molecular target: Tyrosine-protein kinase HCK (Homo sapiens) (UniProt P08631); assay: Inhibition of HCK activation Loop (EGAKFPIKWTAPEAINFGSFTIK) in human PBMC at 1 uM
[5] = molecular target: Mitogen-activated protein kinase 3 (Homo sapiens) (UniProt P27361); assay: Inhibition of Erk1 ATP binding site (DLKPSNLLINTTCDLK) in human PBMC at 1 uM
[6] = molecular target: Myosin light chain kinase, smooth muscle (Homo sapiens) (UniProt Q15746); assay: Inhibition of smMLCK conserved Lys1 (VWAGKFFK) in human PBMC at 1 uM
[7] = molecular target: Tyrosine-protein kinase ABL1 (Homo sapiens) (UniProt P00519); assay: Inhibition of ABL labeling at activation Loop (LMTGDTYTAHAGAKFPIK) in human PBMC at 0.1 uM
[8] = molecular target: Serine/threonine-protein kinase WNK1 (Homo sapiens) (UniProt Q9H4A3); assay: Inhibition of Wnk1 conserved Lys2 (DLKCDNIFITGPTGSVK) in human PBMC at 1 uM
[9] = molecular target: Mitogen-activated protein kinase kinase kinase 15 (Homo sapiens) (UniProt Q6ZN16); assay: Inhibition of MAP3K15 conserved Lys1 (IAIKEIPER) in human PBMC at 1 uM
[10] = molecular target: Mitogen-activated protein kinase kinase kinase 20 (Homo sapiens) (UniProt Q9NYL2); assay: Inhibition of ZAK conserved Lys1 (WISQDKEVAVKK) in human PBMC at 0.1 uM
[11] = molecular target: Ribosomal protein S6 kinase alpha-3 (Homo sapiens) (UniProt P51812); assay: Inhibition of RSK2 domain1 ATP binding site (VLGQGSFGKVFLVK) in human PBMC at 0.1 uM
[12] = molecular target: Serine/threonine-protein kinase Nek7 (Homo sapiens) (UniProt Q8TDX7); assay: Inhibition of NEK7 conserved Lys1 (AACLLDGVPVALKK) in human PBMC at 1 uM
[13] = molecular target: Mitogen-activated protein kinase 7 (Homo sapiens) (UniProt Q13164); assay: Inhibition of Erk5 conserved Lys2 (DLKPSNLLVNENCELK) in human PBMC at 1 uM
[14] = molecular target: Serine/threonine-protein kinase 10 (Homo sapiens) (UniProt O94804); assay: Inhibition of LOK conserved Lys1 (NKETGALAAAKVIETK) in human PBMC at 1 uM
[15] = molecular target: Mitogen-activated protein kinase 3 (Homo sapiens) (UniProt P27361); assay: Inhibition of Erk1 ATP binding site (DLKPSNLLINTTCDLK) in human PBMC at 0.1 uM
[16] = molecular target: Protein kinase C alpha type (Homo sapiens) (UniProt P17252); assay: Inhibition of PKCa conserved Lys2 (DLKLDNVMLDSEGHIK) in human PBMC at 1 uM
[17] = molecular target: Serine/threonine-protein kinase Chk2 (Homo sapiens) (UniProt O96017); assay: Inhibition of CHK2 labeling at conserved Lys1 (VAIKIISK) in human PBMC at 0.1 uM
[18] = molecular target: Serine/threonine-protein kinase WNK2 (Homo sapiens) (UniProt Q9Y3S1); assay: Inhibition of Wnk2 activation Loop (IGDLGLATLKR) in human PBMC at 1 uM
[19] = molecular target: T1, Serine/threonine-protein kinase 3 (Homo sapiens) (UniProt Q13188); assay: Inhibition of MST2 conserved Lys1 (ESGQVVAIKQVPVESDLQEIIK) in human PBMC at 0.1 uM
T1 sequence (whole entry): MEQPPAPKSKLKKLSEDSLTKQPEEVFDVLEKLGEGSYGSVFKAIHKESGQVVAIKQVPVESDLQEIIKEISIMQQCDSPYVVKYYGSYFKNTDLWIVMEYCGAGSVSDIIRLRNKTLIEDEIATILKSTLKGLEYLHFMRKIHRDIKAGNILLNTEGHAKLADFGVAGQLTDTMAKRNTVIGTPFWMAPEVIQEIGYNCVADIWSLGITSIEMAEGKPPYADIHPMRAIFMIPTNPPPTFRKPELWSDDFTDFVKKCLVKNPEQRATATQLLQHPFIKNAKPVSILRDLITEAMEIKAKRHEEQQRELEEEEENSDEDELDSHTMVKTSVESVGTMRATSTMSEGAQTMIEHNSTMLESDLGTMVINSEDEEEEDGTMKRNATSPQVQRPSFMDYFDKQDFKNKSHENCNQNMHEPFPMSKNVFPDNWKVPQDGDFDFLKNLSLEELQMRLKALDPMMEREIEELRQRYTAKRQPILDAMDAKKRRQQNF

[20] = molecular target: Serine/threonine-protein kinase/endoribonuclease IRE1 (Homo sapiens) (UniProt O75460); assay: Inhibition of IRE1 conserved Lys2 (DLKPHNILISMPNAHGK) in human PBMC at 0.1 uM
[21] = molecular target: STE20-like serine/threonine-protein kinase (Homo sapiens) (UniProt Q9H2G2); assay: Inhibition of SLK conserved Lys1 (AQNKETSVLAAAKVIDTK) in human PBMC at 1 uM
[22] = molecular target: Proto-oncogene tyrosine-protein kinase Src (Homo sapiens) (UniProt P12931); assay: Inhibition of SRC ATP binding site (QGAKFPIKWTAPEAALYGR) in human PBMC at 0.1 uM
[23] = molecular target: Serine/threonine-protein kinase WNK1 (Homo sapiens) (UniProt Q9H4A3); assay: Inhibition of Wnk1 ATP binding site (GSFKTVYK) in human PBMC at 1 uM
[24] = molecular target: Serine/threonine-protein kinase SMG1 (Homo sapiens) (UniProt Q96Q15); assay: Inhibition of SMG1 ATP binding site (DTVTIHSVGGTITILPTKTKPK) in human PBMC at 1 uM
[25] = molecular target: Serine/threonine-protein kinase Nek1 (Homo sapiens) (UniProt Q96PY6); assay: Inhibition of NEK1 conserved Lys2 (DIKSQNIFLTK) in human PBMC at 0.1 uM
[26] = molecular target: 5'-AMP-activated protein kinase catalytic subunit alpha-2 (Homo sapiens) (UniProt P54646); assay: Inhibition of AMPKa2 labeling at conserved Lys2 (DLKPENVLLDAHMNAK) in human PBMC at 1 uM
[27] = molecular target: Kinase suppressor of Ras 1 (Homo sapiens) (UniProt Q8IVT5); assay: Inhibition of KSR1 activation Loop (SKNVFYDNGK) in human PBMC at 0.1 uM

Serine/threonine-protein kinase WNK1 (Homo sapiens), sequence (Q9H4A3 whole entry, looked up): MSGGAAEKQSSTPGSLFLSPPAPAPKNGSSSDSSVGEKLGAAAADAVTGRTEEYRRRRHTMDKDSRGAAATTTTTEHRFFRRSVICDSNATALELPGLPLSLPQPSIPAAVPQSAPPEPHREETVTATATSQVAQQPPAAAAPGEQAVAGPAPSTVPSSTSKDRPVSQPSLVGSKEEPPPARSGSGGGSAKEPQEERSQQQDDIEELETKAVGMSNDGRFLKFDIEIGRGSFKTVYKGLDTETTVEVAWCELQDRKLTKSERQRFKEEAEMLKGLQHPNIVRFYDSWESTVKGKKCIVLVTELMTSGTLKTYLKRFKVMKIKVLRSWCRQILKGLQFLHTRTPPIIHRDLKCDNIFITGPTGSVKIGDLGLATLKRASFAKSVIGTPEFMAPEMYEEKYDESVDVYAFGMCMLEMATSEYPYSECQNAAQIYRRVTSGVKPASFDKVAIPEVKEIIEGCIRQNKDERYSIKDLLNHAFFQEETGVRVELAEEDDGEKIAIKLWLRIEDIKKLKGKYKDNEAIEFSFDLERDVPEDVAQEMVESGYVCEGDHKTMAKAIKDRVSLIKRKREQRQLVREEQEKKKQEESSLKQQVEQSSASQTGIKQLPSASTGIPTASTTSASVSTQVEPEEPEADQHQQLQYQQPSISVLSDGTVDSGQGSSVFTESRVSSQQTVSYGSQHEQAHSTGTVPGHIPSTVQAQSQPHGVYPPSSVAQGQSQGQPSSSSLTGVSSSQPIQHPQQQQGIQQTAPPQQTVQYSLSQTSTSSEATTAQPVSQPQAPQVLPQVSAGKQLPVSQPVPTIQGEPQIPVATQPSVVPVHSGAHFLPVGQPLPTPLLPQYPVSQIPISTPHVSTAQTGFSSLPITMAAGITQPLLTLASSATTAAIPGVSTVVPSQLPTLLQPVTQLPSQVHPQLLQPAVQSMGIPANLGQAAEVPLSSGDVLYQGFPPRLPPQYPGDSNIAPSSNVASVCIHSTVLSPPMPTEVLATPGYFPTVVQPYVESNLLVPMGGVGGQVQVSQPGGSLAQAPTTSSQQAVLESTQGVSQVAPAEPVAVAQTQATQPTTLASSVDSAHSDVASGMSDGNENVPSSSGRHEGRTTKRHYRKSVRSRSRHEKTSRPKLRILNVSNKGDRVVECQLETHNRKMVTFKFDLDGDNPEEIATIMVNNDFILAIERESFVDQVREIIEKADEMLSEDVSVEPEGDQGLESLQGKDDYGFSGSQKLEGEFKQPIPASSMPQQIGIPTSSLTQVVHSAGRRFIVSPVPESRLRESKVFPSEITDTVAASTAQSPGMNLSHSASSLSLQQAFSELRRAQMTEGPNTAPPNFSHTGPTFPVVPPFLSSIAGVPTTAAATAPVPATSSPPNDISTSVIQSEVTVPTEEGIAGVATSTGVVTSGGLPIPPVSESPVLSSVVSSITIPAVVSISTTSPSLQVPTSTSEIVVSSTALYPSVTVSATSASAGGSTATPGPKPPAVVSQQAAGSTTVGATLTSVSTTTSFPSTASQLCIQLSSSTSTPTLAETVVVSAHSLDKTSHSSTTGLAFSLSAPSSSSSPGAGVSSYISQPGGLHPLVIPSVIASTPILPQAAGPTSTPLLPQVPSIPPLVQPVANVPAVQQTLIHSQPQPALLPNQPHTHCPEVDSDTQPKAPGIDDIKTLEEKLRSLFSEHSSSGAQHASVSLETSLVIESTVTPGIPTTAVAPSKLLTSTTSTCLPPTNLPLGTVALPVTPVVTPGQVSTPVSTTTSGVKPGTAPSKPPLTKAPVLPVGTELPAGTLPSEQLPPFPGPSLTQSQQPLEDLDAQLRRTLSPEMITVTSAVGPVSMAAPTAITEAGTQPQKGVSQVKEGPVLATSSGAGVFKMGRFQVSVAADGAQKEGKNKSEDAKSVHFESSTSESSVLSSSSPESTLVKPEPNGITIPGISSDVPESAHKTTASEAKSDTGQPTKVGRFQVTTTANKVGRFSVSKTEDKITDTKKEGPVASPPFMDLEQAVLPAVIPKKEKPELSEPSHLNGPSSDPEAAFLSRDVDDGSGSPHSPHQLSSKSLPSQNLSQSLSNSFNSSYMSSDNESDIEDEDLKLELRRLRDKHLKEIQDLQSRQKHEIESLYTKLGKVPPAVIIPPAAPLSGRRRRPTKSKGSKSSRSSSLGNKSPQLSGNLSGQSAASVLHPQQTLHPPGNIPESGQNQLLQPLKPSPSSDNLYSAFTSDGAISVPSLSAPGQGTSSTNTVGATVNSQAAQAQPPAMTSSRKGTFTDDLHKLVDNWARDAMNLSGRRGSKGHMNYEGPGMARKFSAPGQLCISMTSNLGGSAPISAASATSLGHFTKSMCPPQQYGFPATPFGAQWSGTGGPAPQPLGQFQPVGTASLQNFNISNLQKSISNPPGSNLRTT
Mitogen-activated protein kinase 3 (Homo sapiens), sequence (P27361 whole entry): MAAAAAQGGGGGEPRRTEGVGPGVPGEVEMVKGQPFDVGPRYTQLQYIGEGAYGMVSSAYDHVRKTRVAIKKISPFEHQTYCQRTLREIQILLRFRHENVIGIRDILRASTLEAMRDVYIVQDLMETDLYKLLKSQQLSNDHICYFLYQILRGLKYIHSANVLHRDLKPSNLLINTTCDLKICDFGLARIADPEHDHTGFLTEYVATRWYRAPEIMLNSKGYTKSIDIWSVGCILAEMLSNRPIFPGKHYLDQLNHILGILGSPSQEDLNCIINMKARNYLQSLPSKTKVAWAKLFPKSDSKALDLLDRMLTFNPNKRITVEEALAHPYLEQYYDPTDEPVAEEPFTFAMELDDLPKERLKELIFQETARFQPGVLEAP
Serine/threonine-protein kinase/endoribonuclease IRE1 (Homo sapiens), sequence (O75460 19-977 limits assumed): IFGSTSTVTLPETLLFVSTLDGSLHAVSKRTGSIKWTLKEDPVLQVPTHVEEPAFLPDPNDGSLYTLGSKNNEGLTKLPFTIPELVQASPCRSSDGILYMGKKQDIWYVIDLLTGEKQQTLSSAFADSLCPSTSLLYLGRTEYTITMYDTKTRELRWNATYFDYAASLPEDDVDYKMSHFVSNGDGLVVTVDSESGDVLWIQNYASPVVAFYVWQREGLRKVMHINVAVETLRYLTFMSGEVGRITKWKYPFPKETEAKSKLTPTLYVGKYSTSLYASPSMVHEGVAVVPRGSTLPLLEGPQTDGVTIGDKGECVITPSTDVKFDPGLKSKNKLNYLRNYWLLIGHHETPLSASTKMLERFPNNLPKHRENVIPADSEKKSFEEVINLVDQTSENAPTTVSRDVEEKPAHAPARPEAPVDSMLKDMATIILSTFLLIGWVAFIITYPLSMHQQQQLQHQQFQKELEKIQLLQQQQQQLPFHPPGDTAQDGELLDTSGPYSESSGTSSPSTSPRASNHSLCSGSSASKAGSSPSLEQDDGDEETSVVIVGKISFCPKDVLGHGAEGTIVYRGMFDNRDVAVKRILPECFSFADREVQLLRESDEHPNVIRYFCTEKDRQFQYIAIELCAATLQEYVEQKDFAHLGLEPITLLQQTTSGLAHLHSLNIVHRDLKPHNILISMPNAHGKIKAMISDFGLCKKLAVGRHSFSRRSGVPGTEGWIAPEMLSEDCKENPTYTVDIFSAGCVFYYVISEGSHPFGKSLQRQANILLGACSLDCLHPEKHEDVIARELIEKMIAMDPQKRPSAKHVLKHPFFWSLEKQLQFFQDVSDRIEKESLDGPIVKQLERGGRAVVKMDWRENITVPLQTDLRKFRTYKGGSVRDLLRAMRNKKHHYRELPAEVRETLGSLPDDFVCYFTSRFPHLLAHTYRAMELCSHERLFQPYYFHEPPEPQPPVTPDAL
Proto-oncogene tyrosine-protein kinase Src (Homo sapiens), sequence (P12931 2-536 limits assumed): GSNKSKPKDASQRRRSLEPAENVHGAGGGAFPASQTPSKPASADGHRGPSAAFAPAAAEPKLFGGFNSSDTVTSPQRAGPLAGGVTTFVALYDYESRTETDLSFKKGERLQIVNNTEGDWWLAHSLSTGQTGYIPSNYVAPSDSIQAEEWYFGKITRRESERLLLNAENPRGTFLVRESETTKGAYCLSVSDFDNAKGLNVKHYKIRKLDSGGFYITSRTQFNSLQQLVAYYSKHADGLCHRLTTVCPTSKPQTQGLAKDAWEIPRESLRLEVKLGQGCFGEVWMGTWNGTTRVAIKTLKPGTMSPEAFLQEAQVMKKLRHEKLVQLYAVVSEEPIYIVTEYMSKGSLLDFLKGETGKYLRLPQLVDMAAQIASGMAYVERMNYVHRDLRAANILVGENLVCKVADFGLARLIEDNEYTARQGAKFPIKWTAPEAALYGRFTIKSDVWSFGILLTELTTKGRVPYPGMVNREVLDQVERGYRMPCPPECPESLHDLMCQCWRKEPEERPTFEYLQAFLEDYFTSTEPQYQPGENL

CC(C)n1cc(-c2cc(-c3ccc(CN4CCOCC4)cc3)cnc2N)nn1 gave an inhibition [1] of 4.7%, an inhibition [2] of 12.5% and an inhibition [3] of -4.5%. It also gave an inhibition [4] of -2.2%, an inhibition [5] of 4.2% and an inhibition [6] of 26%. The inhibition [7] was -5.2%, the inhibition [8] was 2.2% and the inhibition [9] was -3.3%. For the same compound, the inhibition [10] was 11.3%, the inhibition [11] was 3.1% and the inhibition [12] was 2.1%. The inhibition [13] was 30%, the inhibition [14] was 32.2% and the inhibition [15] was -6.4%. For the same compound, the inhibition [16] was -7.4%, the inhibition [17] was 9.7% and the inhibition [18] was 21.9%. For the same compound, the inhibition [19] was 7.7%, the inhibition [20] was 22.1% and the inhibition [21] was 0.3%. For the same compound, the inhibition [22] was -4.4%, the inhibition [23] was 14.2% and the inhibition [24] was -8.2%. The inhibition [25] was 5.5%, the inhibition [26] was 17.5% and the inhibition [27] was 20.4%.
